Assay results published in PMC11602988 (The Journal of Biological Chemistry, 2024).
Substitutions are numbered along the chain they refer to. Like-named read-outs stand apart in the source and are kept apart here.

Columns and labels:
OCT1 WT = biological target: T1, OCT1 WT (Homo sapiens, UniProt O15245); test: Uptake screening (transport ratio over empty vector), HEK293 cells overexpressing OCT1 WT; assay type: cell-based; set-up: expressed in transfected cells;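 also: intracellular substrate levels quantified by HPLC–tandem mass spectrometry after uptake in HBSS+ buffer at 37 °C, stable Flp-In HEK293 lines, fold change versus empty vector–transfected cells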
T1 sequence (O15245 1-554): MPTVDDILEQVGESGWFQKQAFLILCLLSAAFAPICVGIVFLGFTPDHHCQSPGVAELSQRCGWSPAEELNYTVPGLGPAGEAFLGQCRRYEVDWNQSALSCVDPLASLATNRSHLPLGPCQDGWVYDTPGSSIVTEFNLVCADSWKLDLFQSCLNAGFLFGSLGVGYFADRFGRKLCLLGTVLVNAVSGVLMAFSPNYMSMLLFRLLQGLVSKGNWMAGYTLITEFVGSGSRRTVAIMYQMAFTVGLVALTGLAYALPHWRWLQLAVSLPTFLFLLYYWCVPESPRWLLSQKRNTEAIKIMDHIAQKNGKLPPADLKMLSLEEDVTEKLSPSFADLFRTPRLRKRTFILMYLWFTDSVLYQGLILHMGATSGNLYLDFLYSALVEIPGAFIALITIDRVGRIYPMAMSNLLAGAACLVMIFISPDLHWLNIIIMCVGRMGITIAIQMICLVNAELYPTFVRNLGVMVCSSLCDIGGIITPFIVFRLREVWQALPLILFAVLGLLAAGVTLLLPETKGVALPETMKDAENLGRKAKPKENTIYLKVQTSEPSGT
Experimental: All experiments were carried out using transporter-overexpressing HEK293 cells. […] Cells were cultivated in Dulbecco’s Modified Eagle’s medium supplemented with 10% fetal calf serum, 100 U/ml penicillin, and 100 μg/ml streptomycin. Cells were passaged twice a week and kept in culture for no longer than 30 passages.
For uptake studies, 300,000 HEK293 cells were plated in each well of 24-well plates precoated with poly-D-lysine 48 prior to the experiment. On the day of the experiment, cells were washed once with prewarmed to 37 °C HBSS+ (Hank’s balanced salt solution supplemented with 10 mM Hepes, both Sigma-Aldrich). […] Uptake was stopped by adding ice-cold HBSS+ and cells were washed twice with ice-cold buffer before cell lysis was done using 80% acetonitrile containing an appropriate internal standard for eventual mass spectrometry. Relative quantification was done by comparison of transporter-overexpressing cells to empty vector–transfected controls. For uptake kinetic experiments, cells were incubated with increasing concentrations of substrate dissolved in HBSS+. Absolute quantification was done later by comparison to a standard curve in lysis buffer with known concentration.
Intracellular drug concentrations were detected and quantified by HPLC coupled to mass spectrometry. […] Substance-specific conditions were used to adjust the retention times of the analytes.
Transport ratios were determined as relative fold-increase of the uptake in transporter-overexpressing cells over empty vector–transfected control cells. For transport kinetic experiments, absolute substrate quantification was done by signal comparison to a standard curve with known concentrations. Net uptake was then determined by subtracting the uptake into empty vector–transfected cells from transporter-overexpressing cells. […] Vmax defines the maximum transport velocity, Km refers to the substrate concentration required to reach half vmax. The intrinsic clearance Clint is the ratio of vmax over Km.

OCT1 Phe244Ala variant = biological target: T2, OCT1 Phe244Ala variant (Homo sapiens, UniProt O15245, F244A); test: Uptake screening (transport ratio over empty vector), HEK293 cells overexpressing OCT1 Phe244Ala variant; assay type: cell-based; set-up: expressed in transfected cells;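 also: stably transfected HEK293 cells, intracellular substrate quantified by HPLC-tandem mass spectrometry in cell lysates, uptake in HBSS+ buffer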
T2 sequence (O15245 1-554 F244A): T1 sequence (O15245 1-554) with F244A

[1] = uptake ratio of OCT1 WT-overexpressing HEK293 cells over empty vector
[2] = Phe244Ala uptake relative to OCT1 WT
[3] = uptake ratio of OCT1 Phe244Ala-overexpressing HEK293 cells over empty vector
[4] = uptake ratio over empty vector, HEK293 cells overexpressing OCT1 WT
[5] = Phe244Ala uptake relative to WT
[6] = uptake ratio over empty vector, HEK293 cells overexpressing OCT1 Phe244Ala

SMILES | Mean_transport_ratio_WT (OCT1 WT) | Mean_transport_ratio_Phe244Ala (OCT1 Phe244Ala variant) | relative_Phe244Ala_uptake_in% (OCT1 Phe244Ala variant) [%] | Mean_transport_ratio_WT (OCT1 WT; [4]) | relative_Phe244Ala_uptake_in% (OCT1 Phe244Ala variant; [5]) [%] | Mean_transport_ratio_Phe244Ala (OCT1 Phe244Ala variant; [6]) | other results
CNC(C)Cc1ccc2c(c1)OCO2 (stereo not shown) [3,4-Methylendioxy-N-methylamphetamin] | – | – | – | – | – | – | Mean_transport_ratio_WT (OCT1 WT; [1]): 1.723; relative_Phe244Ala_uptake_in% (OCT1 Phe244Ala variant; [2]): 158.013%; Mean_transport_ratio_Phe244Ala (OCT1 Phe244Ala variant; [3]): 2.142
COc1cc(CCN)ccc1O [3-Methoxy-p-tyramine] | – | – | – | – | – | – | Mean_transport_ratio_WT (OCT1 WT; [1]): 3.981; relative_Phe244Ala_uptake_in% (OCT1 Phe244Ala variant; [2]): 27.805%; Mean_transport_ratio_Phe244Ala (OCT1 Phe244Ala variant; [3]): 1.829
Cc1cc(O)cc(C)c1OCC(C)N (stereo not shown) [4-Hydroxy mexiletine] | – | – | – | – | – | – | Mean_transport_ratio_WT (OCT1 WT; [1]): 3.163; relative_Phe244Ala_uptake_in% (OCT1 Phe244Ala variant; [2]): 23.363%; Mean_transport_ratio_Phe244Ala (OCT1 Phe244Ala variant; [3]): 1.505
COc1ccc2[nH]cc(CCN)c2c1 [5-Methoxytryptamine] | 3.73 | 1.602 | 22.030 | – | – | – | –
c1cnn(C2CCNCC2)c1 [762240-09-5] | – | – | – | 4.49 | 3.421 | 1.119 | –
Cc1cc(N)c(OC(C)C)cc1C1CCNCC1 [1380575-45-0] | – | – | – | 4.645 | 149.293 | 6.442 | –
O=C(O[C@H]1C[N+]2(CCCOc3ccccc3)CCC1CC2)C(O)(c1cccs1)c1cccs1 [(R)-Aclidinium] | – | – | – | 5.059 | 126.640 | 6.14 | –
CNC[C@H](O)c1cccc(O)c1 [(R)-Phenylephrine] | – | – | – | 8.777 | – | 3.864 | relative_Phe244Ala_uptake_in% (OCT1 Phe244Ala variant; [2]): 36.831%
CN(C)CCc1c[nH]c2ccc(C[C@@H]3COC(=O)N3)cc12 [(R)-Zolmitriptan] | 34.392 | 13.515 | 37.478 | – | – | – | –
CC[C@@H](CO)NCCN[C@@H](CC)CO [(R,R)-Ethambutol] | 26.39 | 16.298 | 60.253 | – | – | – | –
CC[C@H](CO)NCCN[C@@H](CC)CO [(R,S)-Ethambutol] | 17.35 | 12.934 | 72.992 | – | – | – | –
O=C(OC1C[N+]2(CCCOc3ccccc3)CCC1CC2)C(O)(c1cccs1)c1cccs1 [(S)-Aclidinium] | – | – | – | 4.495 | 205.468 | 8.181 | –
CCN[C@@H](C)Cc1cccc(C(F)(F)F)c1 [(S)-Fenfluramine] | 1.065 | 1.119 | 183.841 | – | – | – | –
CN(C)CCc1c[nH]c2ccc(C[C@H]3COC(=O)N3)cc12 [(S)-Zolmitriptan] | 30.121 | 8.091 | 24.350 | – | – | – | –
CC[C@@H](CO)NCCN[C@@H](CC)CO [(S,S)-Ethambutol] | 21.59 | 11.185 | 49.465 | – | – | – | –
CN(C)c1ccc(/C=C/c2cc[n+](C)cc2)cc1 [ASP^+, 4-(4-(dimethylamino)styryl)-N-methylpyridinium] | – | – | – | 12.491 | 62.977 | 8.237 | –
CC(=O)OC(C)C[N+](C)(C)C (stereo not drawn) [Acetyl-beta-Methylcholin] | – | – | – | 46.311 | 14.392 | 7.521 | –
CN(C)CCc1c[nH]c2ccc(CS(=O)(=O)N3CCCC3)cc12 [Almotriptan] | – | – | – | 3.882 | 113.777 | 4.279 | –
Nc1ccncc1N [Amifampridine] | – | – | – | 4.689 | 7.302 | 1.269 | –
N=C(N)NC(=O)c1nc(Cl)c(N)nc1N [Amiloride] | 37.597 | 23.504 | 61.492 | – | – | – | –
Cc1cccc(C)c1OCC(C)N (stereo not shown) [Mexiletine] | – | – | – | – | – | – | relative_Phe244Ala_uptake_in% (OCT1 Phe244Ala variant; [2]): 53.635%
